According to patent US20090136521A1, “Method for Selectively Depleting Hypoxic Cells” (Genetix Pharmaceuticals , Inc., priority 2005, published 2009):
Entries after “also recorded” stand apart in the source; their conditions may differ.

Columns and labels:
[1] = test system: Cobblestone Area Forming Cell (CAFC) subsets in bone marrow; test: Cobblestone Area Forming Cell (CAFC) content of bone marrow after in vivo treatment; parameters: species or system mice
Experimental: FIG. 8 is a depiction of CAFC content per hind limb expressed as percent of untreated (saline injected) control following 4×30 mg/kg tirapazamine (TPZ) 2×10 mg/kg Busulfex (BX) or 4 Gy gamma-irradiation. Data represents the mean of bone marrow cell samples pooled from 3-4 individual mice with 95% confidence limits.
5-FU was administered i.p. to B6 recipients at a single dose of 150 mg/kg. At 2 days, the femoral and tibial bone marrow was harvested, pooled from mice and plated for estimate of CAFC content per hind limb. Error bars represent 95% confidence intervals.
Mice: C57BL/6J male mice (with Ly 5.2 marker) obtained from Jackson Laboratories were used for most of the experiments proposed. Mice were maintained in a specific pathogen-free microisolator environment. For some in vivo repopulation assays, B6.5JL-Ptprc^a Pep3^b/BoyJ congenic mice (with Ly5.1 marker) obtained from Jackson Laboratories were used as donors. Bone marrow, thymus, harvest: Bone marrow cells were harvested from mice by crushing the tibias and femurs from the hind limbs in HBSS containing 2% FBS and […] HEPES buffer (HBSS+). Bone marrow cells, thymocytes and splenocytes were passed through 21 gauge needles to get single cell suspensions. The cellularity of bone marrow and thymus was measured by counting total live cells (using trypan blue) and total WBCs (using crystal violet in 3% acetic acid) on a hemocytometer. Measurement of Hoechst perfusion in vivo in mice: The Hoechst dye perfusion in mice was done according to methods previously described in the literature (Durand et al., 1990; Olive et al., 2000; Olive et al., 2002). Briefly, C57BL/6J mice were injected i.v. via the retro-orbital sinus under isoflurane anesthesia with two doses (0.8 mg/mouse) of Hoechst dye (Sigma) at 10 and 5 min before bone marrow harvesting, a period determined to be insufficient for active dye exclusion in vitro. Tibias and femurs were placed immediately on ice, crushed in a pre-cooled mortar and pestle, filtered and suspended in cold HBSS+. Thymus was harvested and thymocyte cell suspension made by passing the cells through 21 gauge needle. The dual emission wavelength of Hoechst fluorescence in bone marrow and thymus was assessed on a logarithmic scale using flow cytometry with exclusion of propidium iodide positive cells. Pimonidazole binding: The detection of hypoxic cells in bone marrow and thymus was done by pimonidazole binding using methods described by Olive et al. (Olive et al., 2000; Olive et al., 2002). Briefly, the mice were injected i.p. with pimonudazole hydrochloride (Chemicon International) at 120 mg/kg dose and the bone marrow as well as thymus were harvested 3 hrs post-injection. […] The fluorescent intensity for staining was measured using flow cytometry. […]

[2] = test system: HSCs; conditions: single dose; Harrison and Lerner, 1991; cited from earlier work
[3] = test system: SP cells in bone marrow; test: Side Population (SP) cells in bone marrow after 5-FU; type: in vivo, mice; conditions: different times after 5-FU; FIG. 13
Experimental: At different times after 5-FU, bone marrow was harvested, nucleated cells counted and incubated in Hoechst dye for subsequent analysis on efficient (lower gate) and poor (higher gate) dye effluxing cells in the SP tail. While the percent of SP cells appeared to increase from day 1 to day 4, the cell yield continued to decrease and thus the actual number of SP cells per hind limb remained low.
(§1) Mice: C57BL/6J male mice (with Ly 5.2 marker) obtained from Jackson Laboratories were used for most of the experiments proposed. Mice were maintained in a specific pathogen-free microisolator environment. […] The cellularity of bone marrow and thymus was measured by counting total live cells (using trypan blue) and total WBCs (using crystal violet in 3% acetic acid) on a hemocytometer. […] Briefly, C57BL/6J mice were injected i.v. via the retro-orbital sinus under isoflurane anesthesia with two doses (0.8 mg/mouse) of Hoechst dye (Sigma) at 10 and 5 min before bone marrow harvesting, a period determined to be insufficient for active dye exclusion in vitro. […] The dual emission wavelength of Hoechst fluorescence in bone marrow and thymus was assessed on a logarithmic scale using flow cytometry with exclusion of propidium iodide positive cells. […] The fluorescent intensity for staining was measured using flow cytometry. […]

[4] = test system: bone marrow; test: Hoechst dye perfusion gradient in bone marrow after 5-FU; type: in vivo, mice; conditions: 1 to 6 days after 5-FU; Hoechst dye i.v. 0.8 mg at 5 and 10 min; FIG. 12
Experimental: At different times after 5-FU, Hoechst dye was injected i.v. (0.8 mg at 5 and 10 min) and the bone marrow analyzed for intensity of Hoechst uptake. The plotted graph gives the red fluorescence intensity for cells at the lower 1% level to show how the Hoechst gradient is shortened at 1 to 6 days after 5-FU and provides evidence for improved oxygenation of the cells that remain after treatment.
as §1

SMILES | primitive late-forming CAFCs, bone marrow content ([1]; 5-FU single dose 150 mg/kg i.p., bone marrow at 2 days, FIG. 11) | early-forming CAFC subsets, bone marrow content ([1]; 5-FU single dose 150 mg/kg i.p., bone marrow at 2 days, FIG. 11, 150 mg/kg) | number of functional HSCs ([1]; after 5-FU) | sensitivity of bone marrow HSCs capable of long-term engraftment in irradiated recipients [2] | percent and overall marrow content of SP cells [3] | Hoechst gradient in bone marrow (red fluorescence intensity, lower 1% level) [4] | depletion of late- versus early-forming CAFC subsets (CAFC content per hind limb) ([1]; TPZ 30 mg/kg i.p. daily over 4 days, bone marrow harvested 24 hours after last treatment, FIG. 8)
O=c1[nH]cc(F)c(=O)[nH]1 [5-FU, 5-fluorouracil] | remain normal | selectively depletes early-forming CAFCs; also recorded: marked depletion | remains unaffected | resistant | decreased; also recorded: dramatic decrease | considerably shortened | 
Nc1n[n+]([O-])c2ccccc2[n+]1[O-] [Tirapazamine, 1,2,4-benzotriazin-3-amine 1,4-dioxide] |  |  |  |  |  |  | higher depletion of late-versus early-forming CAFC subsets
